Laboratory results: PubChem BioAssay (NCI)
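96-well plates; 48 h exposure; 5 concentrations. Endpoints by linear interpolation between flanking doses. Not reached: highest tested concentration assigned. TGI marks complete inhibition of growth.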

What was measured:
Test in all cases: NCI tumour cell line growth inhibition, 48 h
[1] = test system: IGROV1 ovarian
[2] = test system: OVCAR-3 ovarian
[3] = test system: OVCAR-5 ovarian
[4] = test system: EKVX NSCLC
[5] = test system: M14 melanoma
[6] = test system: RPMI-8226 leukemia
[7] = test system: DMS 273 small cell lung
[8] = test system: SN12C renal
[9] = test system: KM20L2 colon
[10] = test system: HL-60(TB) leukemia
[11] = test system: HCT-116 colon
[12] = test system: SF-268 CNS
[13] = test system: DMS 114 small cell lung
[14] = test system: SK-MEL-28 melanoma
[15] = test system: CAKI-1 renal
[16] = test system: SF-539 CNS
[17] = test system: SF-295 CNS
[18] = test system: MALME-3M melanoma
[19] = test system: HOP-62 NSCLC
[20] = test system: COLO 205 colon
[21] = test system: SK-MEL-2 melanoma
[22] = test system: MOLT-4 leukemia
[23] = test system: DLD-1 colon
[24] = test system: ACHN renal
[25] = test system: SK-OV-3 ovarian
[26] = test system: K-562 leukemia
[27] = test system: CCRF-CEM leukemia
[28] = test system: SW-620 colon
[29] = test system: LXFL 529 NSCLC
[30] = test system: HOP-92 NSCLC
[31] = test system: TK-10 renal
[32] = test system: HCT-15 colon
[33] = test system: UACC-62 melanoma
[34] = test system: OVCAR-4 ovarian
[35] = test system: XF 498 CNS
[36] = test system: HCC-2998 colon
[37] = test system: U251 CNS
[38] = test system: SK-MEL-5 melanoma
[39] = test system: M19-MEL melanoma
[40] = test system: SNB-19 CNS
[41] = test system: NCI-H460 lung
[42] = test system: NCI-H23 lung
[43] = test system: 786-0 renal
[44] = test system: A498 renal
[45] = test system: LOX IMVI melanoma
[46] = test system: KM12 colon
[47] = test system: A549 NSCLC
[48] = test system: UACC-257 melanoma
[49] = test system: SNB-78 CNS
[50] = test system: OVCAR-8 ovarian
[51] = test system: SR leukemia
[52] = test system: NCI-H226 lung
[53] = test system: HT29 colon
[54] = test system: UO-31 renal
[55] = test system: NCI-H522 lung
[56] = test system: SNB-75 CNS

`Cc1ccc(C2=C(c3ccccc3)C(O)(c3ccc(C)cc3)C(c3ccccc3)=C2c2ccc(C)cc2)cc1` showed a TGI [1] greater than 100 µM, a TGI [2] greater than 100 µM and a TGI [3] greater than 100 µM. It also gave a TGI [4] greater than 100 µM, a TGI [5] greater than 100 µM and a TGI [6] greater than 100 µM. It also gave a TGI [7] greater than 100 µM, a TGI [8] greater than 100 µM and a TGI [9] greater than 100 µM. For the same compound, the TGI [10] was greater than 100 µM, the TGI [11] was greater than 100 µM and the TGI [12] was greater than 100 µM. The TGI [13] was greater than 100 µM, the TGI [14] was greater than 100 µM and the TGI [15] was greater than 100 µM. The TGI [16] was greater than 100 µM, the TGI [17] was greater than 100 µM and the TGI [18] was greater than 100 µM. The TGI [19] was greater than 100 µM, the TGI [20] was greater than 100 µM and the TGI [21] was greater than 100 µM. The TGI [22] was greater than 100 µM, the TGI [23] was greater than 100 µM and the TGI [24] was greater than 100 µM. It also gave a TGI [25] greater than 100 µM, a TGI [26] greater than 100 µM and a TGI [27] greater than 100 µM. It also gave a TGI [28] greater than 100 µM, a TGI [29] greater than 100 µM and a TGI [30] greater than 100 µM. It also gave a TGI [31] greater than 100 µM, a TGI [32] greater than 100 µM and a TGI [33] greater than 100 µM. The TGI [34] was greater than 100 µM, the TGI [35] was greater than 100 µM and the TGI [36] was greater than 100 µM. For the same compound, the TGI [37] was greater than 100 µM, the TGI [38] was greater than 100 µM and the TGI [39] was greater than 100 µM. For the same compound, the TGI [40] was greater than 100 µM, the TGI [41] was greater than 100 µM and the TGI [42] was 40.2 µM. For the same compound, the TGI [43] was greater than 100 µM, the TGI [44] was greater than 100 µM and the TGI [45] was greater than 100 µM. For the same compound, the TGI [46] was greater than 100 µM, the TGI [47] was greater than 100 µM and the TGI [48] was greater than 100 µM. The TGI [49] was greater than 100 µM and the TGI [50] was greater than 100 µM.
Work on `COC(=O)C(Cc1nc2ccccc2[nH]c1=O)C(=O)C(=O)Nc1ccc(OC)cc1[N+](=O)[O-]` (configuration not stated) yielded a TGI [1] greater than 100 µM, a TGI [2] greater than 100 µM and a TGI [3] greater than 100 µM. It also gave a TGI [4] greater than 100 µM, a TGI [5] greater than 100 µM and a TGI [6] greater than 100 µM. The TGI [8] was greater than 100 µM, the TGI [9] was greater than 100 µM and the TGI [51] was greater than 100 µM. For the same compound, the TGI [10] was greater than 100 µM, the TGI [11] was greater than 100 µM and the TGI [12] was greater than 100 µM. For the same compound, the TGI [14] was greater than 100 µM, the TGI [15] was greater than 100 µM and the TGI [16] was greater than 100 µM. It also gave a TGI [17] greater than 100 µM, a TGI [18] greater than 100 µM and a TGI [19] greater than 100 µM. The TGI [20] was greater than 100 µM, the TGI [52] was greater than 100 µM and the TGI [53] was greater than 100 µM. The TGI [54] was greater than 100 µM, the TGI [21] was greater than 100 µM and the TGI [22] was greater than 100 µM. It also gave a TGI [24] greater than 100 µM, a TGI [25] greater than 100 µM and a TGI [26] greater than 100 µM. The TGI [27] was greater than 100 µM, the TGI [28] was greater than 100 µM and the TGI [55] was greater than 100 µM. It also gave a TGI [29] greater than 100 µM, a TGI [30] greater than 100 µM and a TGI [31] greater than 100 µM. For the same compound, the TGI [32] was greater than 100 µM, the TGI [33] was greater than 100 µM and the TGI [34] was greater than 100 µM. It also gave a TGI [35] greater than 100 µM, a TGI [36] greater than 100 µM and a TGI [37] greater than 100 µM. For the same compound, the TGI [38] was greater than 100 µM, the TGI [39] was greater than 100 µM and the TGI [40] was greater than 100 µM. It also gave a TGI [41] greater than 100 µM, a TGI [42] greater than 100 µM and a TGI [43] greater than 100 µM. For the same compound, the TGI [45] was greater than 100 µM, the TGI [46] was greater than 100 µM and the TGI [47] was greater than 100 µM. The TGI [48] was greater than 100 µM, the TGI [49] was greater than 100 µM and the TGI [50] was greater than 100 µM.
`O=C(O)C1OC(Oc2cc(O)c3c(=O)cc(-c4ccc(O)cc4)oc3c2)C(O)C(O)C1O` (configuration not stated) showed a TGI [2] greater than 100 µM, a TGI [3] greater than 100 µM and a TGI [4] greater than 100 µM. The TGI [5] was greater than 100 µM, the TGI [7] was greater than 100 µM and the TGI [8] was greater than 100 µM. It also gave a TGI [9] greater than 100 µM, a TGI [10] greater than 100 µM and a TGI [11] greater than 100 µM. The TGI [12] was greater than 100 µM, the TGI [13] was greater than 100 µM and the TGI [14] was greater than 100 µM. For the same compound, the TGI [15] was greater than 100 µM, the TGI [16] was greater than 100 µM and the TGI [17] was greater than 100 µM. For the same compound, the TGI [56] was greater than 100 µM, the TGI [18] was greater than 100 µM and the TGI [19] was greater than 100 µM. It also gave a TGI [20] greater than 100 µM, a TGI [52] greater than 100 µM and a TGI [53] greater than 100 µM. It also gave a TGI [54] greater than 100 µM, a TGI [21] greater than 100 µM and a TGI [23] greater than 100 µM. The TGI [24] was greater than 100 µM, the TGI [28] was greater than 100 µM and the TGI [55] was greater than 100 µM. It also gave a TGI [29] greater than 100 µM, a TGI [31] greater than 100 µM and a TGI [34] greater than 100 µM. It also gave a TGI [35] of 83 µM, a TGI [36] greater than 100 µM and a TGI [37] greater than 100 µM. For the same compound, the TGI [38] was greater than 100 µM, the TGI [39] was greater than 100 µM and the TGI [40] was greater than 100 µM. It also gave a TGI [41] greater than 100 µM, a TGI [42] greater than 100 µM and a TGI [43] greater than 100 µM. It also gave a TGI [45] greater than 100 µM, a TGI [46] greater than 100 µM and a TGI [47] greater than 100 µM. It also gave a TGI [48] greater than 100 µM, a TGI [49] greater than 100 µM and a TGI [50] greater than 100 µM.
Compound `Cc1cccc(NC(=O)CC#N)c1Cl` has a TGI [1] greater than 100 µM, a TGI [2] greater than 100 µM and a TGI [4] greater than 100 µM. The TGI [5] was greater than 100 µM, the TGI [6] was greater than 100 µM and the TGI [7] was greater than 100 µM. For the same compound, the TGI [8] was greater than 100 µM, the TGI [9] was greater than 100 µM and the TGI [51] was greater than 100 µM. For the same compound, the TGI [10] was greater than 100 µM, the TGI [11] was greater than 100 µM and the TGI [12] was greater than 100 µM. It also gave a TGI [14] greater than 100 µM, a TGI [15] greater than 100 µM and a TGI [16] greater than 100 µM. For the same compound, the TGI [17] was greater than 100 µM, the TGI [56] was greater than 100 µM and the TGI [18] was greater than 100 µM. It also gave a TGI [52] greater than 100 µM, a TGI [53] greater than 100 µM and a TGI [54] greater than 100 µM. It also gave a TGI [21] greater than 100 µM, a TGI [22] greater than 100 µM and a TGI [23] greater than 100 µM. The TGI [24] was greater than 100 µM, the TGI [25] was greater than 100 µM and the TGI [26] was greater than 100 µM. It also gave a TGI [27] greater than 100 µM, a TGI [28] greater than 100 µM and a TGI [55] greater than 100 µM. The TGI [29] was greater than 100 µM, the TGI [30] was greater than 100 µM and the TGI [31] was greater than 100 µM. For the same compound, the TGI [32] was greater than 100 µM, the TGI [33] was greater than 100 µM and the TGI [35] was greater than 100 µM. For the same compound, the TGI [37] was greater than 100 µM, the TGI [39] was greater than 100 µM and the TGI [40] was greater than 100 µM. The TGI [42] was greater than 100 µM, the TGI [43] was greater than 100 µM and the TGI [45] was greater than 100 µM. The TGI [46] was greater than 100 µM, the TGI [47] was greater than 100 µM and the TGI [48] was greater than 100 µM. The TGI [49] was greater than 100 µM.
